Data taken from publication PMC13385394, “Cryo-EM Structure of the TRPC1/5 Heteromer Enables Design of Antidepressant and Anxiolytic Drug with Reduced Side Effects” (Nature Communications, 2026).

What was measured:
[1] = test system: healthy C57BL/6J mice
Protocol: The Open-Field test (OFT) was utilized to evaluate the autonomous behavior, exploratory tendencies, and anxiety levels of experimental animals in a new environment. Each mouse was placed at the center of the container and given a 10-min exploration period. Before the test, the animals were acclimated to the experimental setting for 60 min. […] This cleaning procedure aimed to reduce the risk of contamination and prevent any misleading experimental results due to olfactory stimuli. Anxiety levels and exploratory behavior were assessed by measuring the time spent in the central area, the number of entries into the central area, and the total distance traveled by the mice.

[2] = target: T1, TRPC5 homomers (Homo sapiens, UniProt Q9UL62); assay: Whole-cell patch-clamp, inhibition of EA-activated TRPC5 homomers; format: cell-based
T1 construct: full length hTRPC5 (TRPC5 wild type (WT)); expressed in transfected cells; host or cells: HEK293T
T1 sequence (Q9UL62 1-973): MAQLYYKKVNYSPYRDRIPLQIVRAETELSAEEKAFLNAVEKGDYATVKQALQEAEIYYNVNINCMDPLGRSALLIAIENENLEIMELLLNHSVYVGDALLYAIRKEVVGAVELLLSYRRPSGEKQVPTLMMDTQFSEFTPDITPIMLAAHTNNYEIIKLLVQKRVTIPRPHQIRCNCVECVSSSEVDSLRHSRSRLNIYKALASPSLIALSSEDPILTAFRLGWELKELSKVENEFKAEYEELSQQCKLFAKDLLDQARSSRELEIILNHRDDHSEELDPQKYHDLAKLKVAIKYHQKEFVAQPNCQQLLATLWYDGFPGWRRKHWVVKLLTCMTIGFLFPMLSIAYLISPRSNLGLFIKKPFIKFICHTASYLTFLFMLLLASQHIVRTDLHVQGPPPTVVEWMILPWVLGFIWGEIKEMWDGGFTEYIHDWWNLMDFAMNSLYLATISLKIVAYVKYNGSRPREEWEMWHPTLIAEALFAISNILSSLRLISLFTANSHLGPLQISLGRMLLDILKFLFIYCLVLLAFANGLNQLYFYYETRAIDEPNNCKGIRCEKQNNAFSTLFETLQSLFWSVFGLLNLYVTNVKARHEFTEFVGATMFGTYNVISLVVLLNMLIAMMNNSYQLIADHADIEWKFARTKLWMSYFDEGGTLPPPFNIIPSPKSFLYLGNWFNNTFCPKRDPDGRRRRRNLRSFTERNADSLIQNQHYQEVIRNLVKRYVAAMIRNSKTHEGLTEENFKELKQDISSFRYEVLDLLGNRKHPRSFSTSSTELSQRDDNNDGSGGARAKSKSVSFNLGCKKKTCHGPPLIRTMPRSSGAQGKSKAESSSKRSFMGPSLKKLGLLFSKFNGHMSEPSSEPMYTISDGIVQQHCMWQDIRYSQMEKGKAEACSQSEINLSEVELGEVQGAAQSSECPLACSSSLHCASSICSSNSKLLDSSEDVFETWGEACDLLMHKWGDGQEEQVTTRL

[3] = target: T2, hTRPC5 (Homo sapiens, UniProt Q9UL62); assay: Calcium flux assay (Calcium 5 kit, EA 100 nM), hTRPC5 in HEK293T cells; format: cell-based; settings: calcium flux screening, 10 μM
T2 construct: Full-length, non-tagged hTRPC1 and hTRPC5 constructs are used for calcium flux assays; expressed in transfected cells; host or cells: HEK293T
T2 sequence (Q9UL62 1-973): T1 sequence (Q9UL62 1-973)
Protocol: Five minutes before measurement, molecules are added to each well at a final concentration of 10 µM under light-sensitive conditions.

[4] = test system: mCPP-induced anxiety; assay: Open-field test (OFT), mCPP-induced anxiety model; settings: single dose
[5] = test system: CUMS-induced depressive-like behaviors; assay: Forced swim test (FST) in CUMS model; format: in vivo, mouse; settings: CUMS mice; 14 days once-daily oral; vs vehicle
Protocol: The stressors included food and water deprivation, foot shock, wet bedding, cage tilting, restraint, shaking, and olfactory stimulation. These seven stressors were randomly applied each week to ensure unpredictability. The stress induction was maintained continuously for 28 days. Following model establishment, the tail suspension test (TST) was performed to confirm the successful induction of depressive-like behaviors. Mice that met the criteria were randomly assigned to experimental groups. Chronic Treatment: Mice were treated daily for 14 consecutive days. The SPT was conducted on day 11, and the forced swimming test (FST) was performed on day 14.

[6] = test system: mCPP-induced anxiety; assay: Elevated plus maze (EPM) test, mCPP-induced anxiety model; settings: mCPP mice; single dose; JD03-02 3, 10, 30 mg/kg i.g.

With `CN(C)CCCCn1c(=O)c2c(nc(Oc3cccc(Cl)c3)n2Cc2ccc(Cl)cc2)n(C)c1=O` [H08] the “OFT total distance traveled” value [1] was “no significant effect”, the “concentration at which inhibition of TRPC5 homomers appears” value [2] was greater than 5 µM and the “HillSlope, TRPC5” value ([2]; whole-cell patch-clamp) was 1.990. The IC50 ([2]; whole-cell patch-clamp) was 8.5 µM, the “HillSlope, TRPC5” value ([2]; whole-cell patch-clamp, listed as JD03-02) was greater than 1 and the “inhibitory activity toward TRPC5 homomers (in words)” value [3] was “minimal effect”. For the same compound, the “OFT central zone entries and time in central zone” value ([4]; mCPP mice) was “enhancing numbers of central zone entries and time spent in the central zone”, the “OFT total distance traveled” value ([4]; mCPP-induced anxiety-like mice) was “no significant effect” and the “immobility (FST), repeated dosing” value [5] was “reduced immobility”. The “EPM open arm entries and time in open arms” value [6] was “increasing numbers of open arm entries and time spent in open arms”.
